This passage reports TGI results from PubChem BioAssay (NCI).

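Exposure lasted 48 hours, with cells grown in 96-well plates and compounds tested at five concentrations. Definition used: TGI = concentration required for complete inhibition of growth.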 Bounds are passed on as bounds.

Some test systems named below: MDA-N; SR leukemia; PC-3 prostate; MDA-MB-231 breast; CCRF-CEM leukemia; HOP-92 NSCLC; K-562 leukemia; CAKI-1 renal; SF-295 CNS; UO-31 renal; RPMI-8226 leukemia; ACHN renal; HOP-62 NSCLC; IGROV1 ovarian; SK-MEL-5 melanoma; NCI-H522 lung; SF-539 CNS; SK-OV-3 ovarian; T-47D breast; HS 578T breast.
Common to all, as to experiment: NCI anticancer screen, dose series, 48 h

With `O=S1(=O)OCCOS(=O)(=O)C1S(=O)(=O)c1ccc2ccccc2c1`, the TGI with MDA-N, with SR leukemia, in the assay on PC-3 prostate, in the assay on MDA-MB-231 breast, in the assay on CCRF-CEM leukemia and in the assay on HOP-92 NSCLC was > 100 µM in each case. The TGI in the assay on K-562 leukemia, in the assay on CAKI-1 renal, in the assay on SF-295 CNS, in the assay on UO-31 renal, in the assay with RPMI-8226 leukemia and in the assay with ACHN renal was > 100 µM each time. Moreover, the TGI in the assay with HOP-62 NSCLC, in the assay with IGROV1 ovarian and in the assay on SK-MEL-5 melanoma was > 100 µM in each case.

Consider `CN1CN(c2ccccc2)C2(CCN(Cc3csc4ccccc34)CC2)C1=O`, for which the TGI with MDA-N is 32.2 µM; in the assay on SR leukemia, 23.2 µM; in the assay with PC-3 prostate, 43 µM; in the assay on NCI-H522 lung, 35.7 µM; in the assay with CCRF-CEM leukemia, > 100 µM; in the assay on K-562 leukemia, > 100 µM. The TGI was > 100 µM in the assay with CAKI-1 renal; 48.3 µM in the assay on SF-539 CNS; 26.6 µM in the assay with SF-295 CNS; 12.3 µM in the assay on UO-31 renal; 7.5 µM in the assay on RPMI-8226 leukemia; > 100 µM with SK-OV-3 ovarian. Also, the TGI stood at 92.4 µM in the assay with ACHN renal; 71 µM in the assay on T-47D breast; 87.5 µM in the assay on HOP-62 NSCLC; 44.7 µM in the assay with IGROV1 ovarian; 22.4 µM in the assay with SK-MEL-5 melanoma.

Turning to `CCc1cc2c(c3c1CCC3=O)CC1(Cc3ccc(C)cc3C1)C2` (stereo not given), the TGI is > 100 µM in the assay with MDA-N; 91.7 µM with PC-3 prostate; > 100 µM in the assay with MDA-MB-231 breast; > 100 µM with NCI-H522 lung; 34.7 µM in the assay on CCRF-CEM leukemia; 62.8 µM in the assay on HOP-92 NSCLC. The TGI is > 100 µM in the assay with K-562 leukemia; > 100 µM with SF-539 CNS; 86.9 µM in the assay on HS 578T breast; > 100 µM in the assay on SF-295 CNS; 94.8 µM in the assay with RPMI-8226 leukemia; > 100 µM with SK-OV-3 ovarian. Besides, the TGI in the assay with ACHN renal was > 100 µM; in the assay with T-47D breast it was > 100 µM; in the assay on HOP-62 NSCLC it was > 100 µM; in the assay with IGROV1 ovarian it was > 100 µM; in the assay on SK-MEL-5 melanoma it was 76.8 µM.

As for `C=C[C@@]1(C)CC[C@@H]2[C@@]3(C1)O[C@H]3CC1[C@](C)(C(=O)OC)CCC[C@@]12C` (stereo not given in full), the TGI with MDA-N was 56.8 µM; in the assay on PC-3 prostate it was > 100 µM; in the assay with MDA-MB-231 breast, 58.1 µM; in the assay on NCI-H522 lung, 31.6 µM; in the assay with HOP-92 NSCLC, 33.8 µM; in the assay on K-562 leukemia it was > 100 µM. Also, the TGI with CAKI-1 renal was > 100 µM; in the assay on HS 578T breast it was 44.2 µM; with SF-295 CNS, 29.3 µM; in the assay with UO-31 renal, 31.8 µM; in the assay with RPMI-8226 leukemia, 65.6 µM; with SK-OV-3 ovarian, 69.6 µM. Moreover, the TGI is 29.5 µM in the assay with ACHN renal; 55.9 µM with T-47D breast; 40.6 µM with HOP-62 NSCLC; 58.4 µM in the assay with IGROV1 ovarian; 33.7 µM with SK-MEL-5 melanoma.

For the compound `C/C(=C(/C)c1ccc(O)cc1)c1ccc(O)cc1`, the TGI in the assay on MDA-N was > 100 µM; with SR leukemia, 83.8 µM; with PC-3 prostate, > 100 µM; in the assay on MDA-MB-231 breast, > 100 µM; with NCI-H522 lung, > 100 µM; with CCRF-CEM leukemia, > 100 µM. For the same compound, the TGI with HOP-92 NSCLC is 91.6 µM; in the assay with K-562 leukemia, > 100 µM; in the assay with CAKI-1 renal, > 100 µM; with SF-539 CNS, > 100 µM; in the assay on HS 578T breast it was 75.6 µM; in the assay with UO-31 renal it was > 100 µM. In addition, the TGI with RPMI-8226 leukemia is 71.6 µM; in the assay with SK-OV-3 ovarian, > 100 µM; in the assay with ACHN renal, > 100 µM; in the assay on HOP-62 NSCLC it was > 100 µM; with IGROV1 ovarian it was > 100 µM; in the assay with SK-MEL-5 melanoma it was 50 µM.

In the case of `CCOC(=O)c1cc(=O)c2ccnc3c2n1CCS3`, the TGI in the assay with MDA-N is > 100 µM; with PC-3 prostate, > 100 µM; in the assay on MDA-MB-231 breast, > 100 µM; with NCI-H522 lung it was 74.4 µM; in the assay on CCRF-CEM leukemia it was > 100 µM; with HOP-92 NSCLC, > 100 µM. The TGI in the assay on CAKI-1 renal, with SF-539 CNS, with HS 578T breast, in the assay on SF-295 CNS, in the assay on UO-31 renal and with SK-OV-3 ovarian was > 100 µM each time. For the same compound, the TGI with ACHN renal, in the assay on T-47D breast, in the assay with HOP-62 NSCLC, with IGROV1 ovarian and in the assay on SK-MEL-5 melanoma was > 100 µM each time.

With `CN1Cc2cc3cc4c(cc3nc2N(C)C1)OCCO4`, the TGI with MDA-N, in the assay on PC-3 prostate, in the assay with MDA-MB-231 breast, with NCI-H522 lung, in the assay on CCRF-CEM leukemia and with HOP-92 NSCLC was > 100 µM each time. Further, the TGI in the assay with K-562 leukemia, with CAKI-1 renal, with SF-539 CNS, in the assay with SF-295 CNS, in the assay on RPMI-8226 leukemia and in the assay with SK-OV-3 ovarian was > 100 µM in each case. The TGI with ACHN renal, in the assay on HOP-62 NSCLC, with IGROV1 ovarian and in the assay with SK-MEL-5 melanoma was > 100 µM each time.

For the compound `Cc1ccc2nc3c(=O)[nH]c(=O)nc-3n(C)c2c1C`, the TGI in the assay with MDA-N, with PC-3 prostate, in the assay on MDA-MB-231 breast, in the assay on NCI-H522 lung, with CCRF-CEM leukemia and with K-562 leukemia was > 100 µM throughout. The TGI with CAKI-1 renal, with SF-539 CNS, in the assay on HS 578T breast, in the assay with SF-295 CNS, with UO-31 renal and with RPMI-8226 leukemia was > 100 µM throughout. Also, the TGI with SK-OV-3 ovarian, in the assay with ACHN renal, in the assay with T-47D breast, in the assay with HOP-62 NSCLC, in the assay with IGROV1 ovarian and in the assay on SK-MEL-5 melanoma was > 100 µM in each case.
